The nature of the data set: Stability studies: storage at room temperature under different relative humidity conditions, checked by XRPD pattern. It is filed as physicochemical. The note with it: 25° C., 40%, 60%, 80%, 30%, 40% RH, 1 week each. The procedure:
The XRPD analyses were carried out on a PANanalytical X'pert Pro X-ray powder diffractometer using Cu Kα radiation. The instrument was equipped with a X'Celerator detector. A theta-two theta continuous scan from 2.5 degrees 2 theta to 40 degrees 2 theta was used. Each sample is prepared for analysis by placing it in a quartz sample holder. The XPRD patterns are reported in terms of degrees 2 theta (°2θ, accuracy ±0.1°), diffraction peak intensity (height, [cts]), full width at half maximum (FWHM, [°2θ]), interatomic spacing in angstroms (d-spacing, [Å]), and relative intensities (%). The relative intensity is recorded as the ratio of the peak intensity to that of the most intense peak.
In order to check its thermodynamic stability, the CHF 4226 crystal form E was stored at room temperature under different relative humidity (RH) conditions: • 40% RH. and 25° C. for 1 week • 60% RH. and 25° C. for 1 week • 80% RH and 25° C. for 1 week • 60% RH and 25° C. for 1 week • 40% RH and 25° C. for 1 week • 30% RH and 25° C. for 1 week • 40% RH and 25° C. for 1 week. The thermodynamic stability of all the samples was checked by recording their XPRD pattern.

The source of these data is US20090280067A1, “CRYSTAL FORM OF 8-HYDROXY-5-[(1R)-1-HYDROXY-2-[[(1R)-2-(4-METHOXYPHENYL)-1-METHYLETHYL]AMINO]ETHYL]-2(1H)-QUINOLINONE MONOHYDROCHLORIDE” (Chiesi Farmaceutici S.p.A., priority 2008, published 2009).

Molecules are shown by their SMILES.

For the compound `COc1ccc(C[C@@H](C)NC[C@H](O)c2ccc(O)c3[nH]c(=O)ccc23)cc1.Cl` [CHF 4226 crystal form E, 8-hydroxy-5-[(1R)-1-hydroxy-2-[[(1R)-2-(4-methoxyphenyl)-1-methylethyl]amino]ethyl]-2(1H)-quinolinone monohydrochloride], the “thermodynamic stability (XPRD pattern) after storage” value is “stable features under all stability screening conditions”.
